Data set [1] has as its target T1, IDE (Homo sapiens (Human), UniProt P14735). The data set can be described thus: In vitro protease assay with IDE (cleavage of fluorophore-quencher substrate peptide). The data set is classed as biochemical. The settings on record: for potency of trans-olefin isomer relative to corresponding cis-olefin isomer: trans vs cis isomer, IDE inhibition; for activity / potency against IDE (in words): derivatives compared with 6b. The procedure:
Protease assays with IDE and neprilysin were performed using Mca-RPPGFSAFK(Dnp)-OH substrate peptide (R&D Systems, SEQ ID NO: 6) and purified recombinant human IDE and recombinant human neprilysin (R&D Systems) according to the manufacturer's instructions. For IDE, 2 μL of small molecule dissolved in DMSO was combined with 48 μL 0.2 μg/mL IDE in IDE assay buffer (50 mM Tris, 1 M NaCl, pH 7.5). 50 μL of 20 μM substrate peptide in IDE assay buffer was then added to initiate the reaction, and peptide cleavage was monitored on a fluorescent plate reader (excitation=320 nm; emission=405 nm) for 5 minutes. The above protocol was also used for assaying neprilysin activity, substituting the neprilysin assay buffer (50 mM Tris, 0.05% Brij-35, pH 9.0).
Compounds were synthesized as described previously;^9 in most cases the macrocycle synthesis yielded two isomers corresponding to the cis and trans olefins generated after macrocyclization. Macrocycles were assayed for IDE inhibition by monitoring cleavage of a substrate peptide^13 containing a fluorophore-quencher pair such that cleavage of the model substrate results in increased fluorescence.

The target in data set [2] is T1, IDE. The data set can be described thus: In vitro selection of DNA-templated macrocycle library against immobilized IDE. In kind it is binding. On the procedure:
Selections of the DNA-templated library were performed as described previously.^9 20 μg of IDE was immobilized on 30 μL of Dynabeads His-Tag Isolation and Pulldown (Invitrogen) magnetic particles according to the manufacturer's instructions. Elution of captured DNA-library members was performed by incubating the protein-loaded particles with 200 mM imidazole. Prior to PCR amplification, imidazole was removed from the eluted samples by gel filtration using Princeton Separations Sephadex minicolumns.
Insulin-degrading enzyme (IDE) protein was obtained in its purified form with a poly-histidine tag and immobilized on magnetic particles coated with cobalt. After incubation with the DNA-templated library, non-binding library members were washed away with buffer, and protein-library member complexes were eluted from resin with imidazole (FIG. 1). DNA-templated library members enriched after target selection were PCR amplified with target-specific barcoded primers that appended adaptors required for Illumina high-throughput DNA sequencing. We performed two independent selection replicates with IDE and three independent selections against empty resin as negative control selections. These five barcoded selection PCR amplicons were pooled in equimolar quantities and submitted for Illumina high-throughput DNA sequencing. High-throughput sequencing yielded 19 million sequence reads—an average of ˜3.8 million sequence reads per selection.
After one round of in vitro selection, we identified DNA sequences corresponding to macrocycles A12-B8-C11-D5 (3), A12-B8-C5-D5 (5), A12-B8-C6-D5 (6) and A12-B8-C8-D5 (2) enriched between 4- to 14-fold against IDE (FIG. 2a, IDE selection 1); these same macrocycles were also enriched 3- to 6-fold in a replicate IDE selection (FIG. 2a, IDE selection 2).

For data set [3], the target named is recombinant human neprilysin (Homo sapiens (Human), UniProt P08473). The data set can be described thus: In vitro protease assay with neprilysin. The settings on record: even when assayed at 100 μM.
A short description of data set [4]: Preliminary pharmacokinetics after i.p. injection (LC-MS quantitation in plasma). The settings on record: mice, 20 mg/kg i.p.
The target of data set [5] is T1, IDE. The data set can be described thus: Yonetani-Theorell double inhibition of IDE. In kind it is biochemical. The settings on record: varying concentrations of both 6b and Ii1. The text has this: The lack of obvious structural relationship between 6b and known IDE substrates, together with its excellent selectivity profile, raised the possibility that 6b may inhibit IDE by binding an allosteric site, rather than the active site. To test this possibility, we assayed IDE in vitro in the presence of varying concentrations of both 6b and Ii1.

Data set [6] in a line: Biodistribution assay (LC-MS of brain, pancreas, plasma after IP injection). The settings on record: mice, 45 minutes after intraperitoneal injection. In kind it is in vivo, mouse. The procedure:
Macrocycles were diluted to 0.1 mg/mL or 1 mg/mL in PBS and IP-injected into a mouse to produce a concentration of 1 mg/kg or 10 mg/kg, respectively. After 45 minutes, organs were harvested, and the small-molecule fractions were extracted into a 2:1:1 mixture of chloroform:methanol:water. Samples were evaporated under a stream of nitrogen, resuspended in 100 μL of chloroform and subjected to LC-MS analysis.
The tissue distribution of enriched macrocycles after i.p. injection was examined. […] Briefly, compounds were injected at different concentrations intraperitoneally into mice, and plasma, brain, and pancreas were harvested after 45 minutes. Vehicle-only injections were performed as negative controls. We determined the relative amount of macrocycle present by extracting the organs with organic solvents and quantifying the amount of compound present by LC-MS analysis.

For another data set, the target named is recombinant human THOP1 (Homo sapiens (Human), UniProt P52888). The data set can be described thus: In vitro protease assay with THOP1. The data set is classed as biochemical. On the procedure: (§1) Protease assays with THOP1 and NLN were performed using MCA-Pro-Leu-Gly-Pro-D-Lys(DNP)-OH (Bachem, SEQ ID NO: 7) and purified recombinant human THOP1 and NLN (R&D Systems) according to the manufacturer's instructions.

Another data set has as its system trypsin. The data set can be described thus: Trypsin activity assay (Z-Arg-AMC substrate). The settings on record: even when assayed at 100 μM.
In another data set the target is plasma IDE activity (Mus musculus (Mouse), UniProt Q9JHR7). The data set can be described thus: Plasma IDE activity in mice injected with inhibitor. The settings on record: 60 min after 10 mg/kg, 20 mg/kg, or 40 mg/kg i.p. injection, vs vehicle. In kind it is in vivo. The procedure: Finally, we compared plasma IDE activity in mice injected with 6b with plasma IDE activity in control mice injected with vehicle alone (18:1:1, saline:DMSO:Tween-80). Plasma IDE activity 60 min after 10 mg/kg, 20 mg/kg, or 40 mg/kg i.p. injection of 6b was inhibited by ≧90% (FIG. 9).

The target in another data set is recombinant human NLN (Homo sapiens (Human), UniProt Q9BYT8). The data set can be described thus: In vitro protease assay with NLN. In kind it is biochemical. On the procedure: as §1
The nature of a further data set: Solubility. In kind it is physicochemical.
Where [7] appears, read: fluorophore-quencher model peptide.

Where two headings read alike, the source gives them in different places. Some results are limits rather than exact numbers.

Results on 15 compounds are retold here after US9243038B2, “Macrocyclic insulin-degrading enzyme (IDE) inhibitors and uses thereof” (President and Fellows of Harvard College, priority 2011, dated 2016).

Chain of recombinant human THOP1 (P52888 whole entry): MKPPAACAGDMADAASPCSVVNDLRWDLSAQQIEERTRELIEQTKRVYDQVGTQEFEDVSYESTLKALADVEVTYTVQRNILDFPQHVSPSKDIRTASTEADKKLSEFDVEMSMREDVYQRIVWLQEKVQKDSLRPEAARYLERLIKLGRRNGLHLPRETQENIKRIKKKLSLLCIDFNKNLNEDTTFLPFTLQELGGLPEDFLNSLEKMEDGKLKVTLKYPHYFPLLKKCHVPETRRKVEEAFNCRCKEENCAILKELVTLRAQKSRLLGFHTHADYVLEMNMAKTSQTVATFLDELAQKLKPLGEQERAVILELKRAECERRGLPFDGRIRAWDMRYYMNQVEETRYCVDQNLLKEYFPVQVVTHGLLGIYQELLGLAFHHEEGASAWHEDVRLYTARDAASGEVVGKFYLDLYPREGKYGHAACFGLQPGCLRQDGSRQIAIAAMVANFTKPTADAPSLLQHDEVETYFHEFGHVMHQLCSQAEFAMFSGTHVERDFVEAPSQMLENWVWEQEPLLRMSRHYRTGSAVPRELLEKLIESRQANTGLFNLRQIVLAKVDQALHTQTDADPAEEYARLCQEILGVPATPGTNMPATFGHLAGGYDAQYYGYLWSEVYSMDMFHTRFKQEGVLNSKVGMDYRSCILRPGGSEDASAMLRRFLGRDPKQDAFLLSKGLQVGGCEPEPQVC
Chain of recombinant human NLN (Q9BYT8 38-704): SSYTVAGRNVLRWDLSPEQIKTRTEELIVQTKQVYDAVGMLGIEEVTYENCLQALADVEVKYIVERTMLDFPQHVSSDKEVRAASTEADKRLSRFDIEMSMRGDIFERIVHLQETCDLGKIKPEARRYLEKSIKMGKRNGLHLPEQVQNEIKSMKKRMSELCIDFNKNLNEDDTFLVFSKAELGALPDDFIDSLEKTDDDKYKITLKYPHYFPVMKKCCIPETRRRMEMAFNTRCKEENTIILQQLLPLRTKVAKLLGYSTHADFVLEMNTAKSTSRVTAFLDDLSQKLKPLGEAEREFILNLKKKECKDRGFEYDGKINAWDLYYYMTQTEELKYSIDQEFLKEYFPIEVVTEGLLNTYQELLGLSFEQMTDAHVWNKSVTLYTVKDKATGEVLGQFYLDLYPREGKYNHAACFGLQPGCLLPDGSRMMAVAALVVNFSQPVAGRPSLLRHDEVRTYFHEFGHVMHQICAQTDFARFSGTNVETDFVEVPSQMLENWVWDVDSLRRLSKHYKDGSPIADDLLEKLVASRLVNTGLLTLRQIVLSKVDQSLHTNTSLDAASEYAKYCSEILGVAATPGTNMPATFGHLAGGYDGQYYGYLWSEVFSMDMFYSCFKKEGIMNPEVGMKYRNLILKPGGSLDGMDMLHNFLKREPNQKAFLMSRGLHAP
T1 sequence (P14735 whole entry): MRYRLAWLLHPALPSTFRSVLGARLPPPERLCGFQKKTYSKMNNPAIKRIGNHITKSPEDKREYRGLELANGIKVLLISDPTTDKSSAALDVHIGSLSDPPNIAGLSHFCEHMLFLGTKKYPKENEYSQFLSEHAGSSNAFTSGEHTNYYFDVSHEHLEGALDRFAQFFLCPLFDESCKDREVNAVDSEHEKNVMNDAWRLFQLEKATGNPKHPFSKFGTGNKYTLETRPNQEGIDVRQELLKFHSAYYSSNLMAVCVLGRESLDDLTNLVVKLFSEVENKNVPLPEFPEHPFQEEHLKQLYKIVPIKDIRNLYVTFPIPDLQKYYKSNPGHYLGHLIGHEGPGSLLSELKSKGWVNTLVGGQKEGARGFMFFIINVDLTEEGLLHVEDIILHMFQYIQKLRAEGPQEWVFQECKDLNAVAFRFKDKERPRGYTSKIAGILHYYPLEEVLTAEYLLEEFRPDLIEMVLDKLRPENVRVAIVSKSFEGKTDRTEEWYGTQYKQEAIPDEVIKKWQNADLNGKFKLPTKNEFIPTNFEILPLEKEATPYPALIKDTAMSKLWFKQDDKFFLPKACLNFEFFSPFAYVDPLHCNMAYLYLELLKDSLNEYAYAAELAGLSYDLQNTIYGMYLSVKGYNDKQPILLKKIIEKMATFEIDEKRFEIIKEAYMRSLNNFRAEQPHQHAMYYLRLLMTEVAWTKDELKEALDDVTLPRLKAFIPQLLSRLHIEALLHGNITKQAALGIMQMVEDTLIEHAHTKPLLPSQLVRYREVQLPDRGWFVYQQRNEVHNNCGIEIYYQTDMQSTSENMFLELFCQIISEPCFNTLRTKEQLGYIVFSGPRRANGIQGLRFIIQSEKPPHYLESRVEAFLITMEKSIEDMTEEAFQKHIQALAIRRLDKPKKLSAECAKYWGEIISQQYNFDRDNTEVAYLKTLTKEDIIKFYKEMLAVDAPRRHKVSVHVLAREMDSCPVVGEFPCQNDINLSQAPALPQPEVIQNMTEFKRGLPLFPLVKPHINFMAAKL
Chain of plasma IDE activity (Q9JHR7 other isoform, or with tags, fused parts or gaps): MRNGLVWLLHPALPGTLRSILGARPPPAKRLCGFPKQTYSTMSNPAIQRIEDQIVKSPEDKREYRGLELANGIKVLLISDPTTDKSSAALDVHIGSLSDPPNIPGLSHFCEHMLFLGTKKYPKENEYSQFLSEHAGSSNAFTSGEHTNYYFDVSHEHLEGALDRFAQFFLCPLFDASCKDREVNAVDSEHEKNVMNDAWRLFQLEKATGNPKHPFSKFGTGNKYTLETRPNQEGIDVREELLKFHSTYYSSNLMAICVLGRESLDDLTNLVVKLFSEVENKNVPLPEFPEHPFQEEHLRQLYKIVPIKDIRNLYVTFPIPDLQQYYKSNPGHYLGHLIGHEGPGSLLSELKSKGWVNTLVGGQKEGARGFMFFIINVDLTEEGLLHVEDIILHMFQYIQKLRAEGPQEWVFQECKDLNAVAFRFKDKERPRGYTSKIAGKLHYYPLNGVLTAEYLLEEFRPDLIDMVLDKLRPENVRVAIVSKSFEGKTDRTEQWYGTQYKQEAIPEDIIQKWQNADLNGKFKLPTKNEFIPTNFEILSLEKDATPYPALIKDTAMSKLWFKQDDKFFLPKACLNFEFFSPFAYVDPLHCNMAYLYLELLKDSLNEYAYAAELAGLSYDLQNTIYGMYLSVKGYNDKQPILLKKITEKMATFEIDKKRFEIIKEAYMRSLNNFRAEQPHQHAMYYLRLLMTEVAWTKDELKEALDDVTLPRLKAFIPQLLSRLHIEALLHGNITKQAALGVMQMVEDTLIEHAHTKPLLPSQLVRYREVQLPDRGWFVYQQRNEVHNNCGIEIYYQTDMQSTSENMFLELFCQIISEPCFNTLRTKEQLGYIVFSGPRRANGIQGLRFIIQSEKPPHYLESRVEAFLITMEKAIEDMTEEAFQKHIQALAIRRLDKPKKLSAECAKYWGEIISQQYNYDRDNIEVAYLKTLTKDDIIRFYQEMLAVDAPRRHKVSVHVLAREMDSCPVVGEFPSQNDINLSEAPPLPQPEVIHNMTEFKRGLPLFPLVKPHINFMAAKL
Chain of recombinant human neprilysin (P08473 whole entry): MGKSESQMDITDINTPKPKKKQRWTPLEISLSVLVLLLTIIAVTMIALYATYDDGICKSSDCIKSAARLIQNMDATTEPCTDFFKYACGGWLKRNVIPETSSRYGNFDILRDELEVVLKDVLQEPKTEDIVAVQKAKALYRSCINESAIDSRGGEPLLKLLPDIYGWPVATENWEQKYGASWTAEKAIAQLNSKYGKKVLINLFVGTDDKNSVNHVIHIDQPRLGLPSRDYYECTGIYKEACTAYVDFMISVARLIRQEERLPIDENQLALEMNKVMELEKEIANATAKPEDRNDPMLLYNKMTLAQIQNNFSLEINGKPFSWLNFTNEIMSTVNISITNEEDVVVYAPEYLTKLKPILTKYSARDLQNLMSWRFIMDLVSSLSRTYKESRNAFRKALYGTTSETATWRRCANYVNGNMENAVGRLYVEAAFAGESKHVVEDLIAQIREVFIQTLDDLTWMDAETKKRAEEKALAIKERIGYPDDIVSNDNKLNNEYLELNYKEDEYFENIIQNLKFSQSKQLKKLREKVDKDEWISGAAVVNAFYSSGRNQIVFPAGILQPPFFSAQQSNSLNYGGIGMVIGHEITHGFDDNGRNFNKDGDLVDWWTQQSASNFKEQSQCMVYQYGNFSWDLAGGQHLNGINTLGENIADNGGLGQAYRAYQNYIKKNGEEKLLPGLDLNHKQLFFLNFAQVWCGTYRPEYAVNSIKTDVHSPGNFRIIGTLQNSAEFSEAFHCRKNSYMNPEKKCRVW

With `NC(=O)C1CCCCNC(=O)C(Cc2ccc(C(=O)c3ccccc3)cc2)NC(=O)C(CC2CCCCC2)NC(=O)CC(O)C(CC2CCCCC2)NC(=O)C=CC(=O)N1` (mixture of isomers) [Compound 3], on IDE [1], the “potency of trans-olefin isomer relative to corresponding cis-olefin isomer” value was > 10 fold. Also, the “enrichment against IDE” value at IDE [2] (IDE selection 1, one round) is listed as 4- to 14 fold; at IDE [2] (replicate IDE selection 2) it was 3- to 6 fold.
With `NC(=O)C1CCCCNC(=O)CNC(=O)C(CC2CCCCC2)NC(=O)CC(O)C(CC2CCCCC2)NC(=O)C=CC(=O)N1` (mixture of isomers) [Compound 4], the “activity / potency against IDE (in words)” value (from here on “activity / potency”) on IDE [1] was “inactive”. Also, at IDE [2], the “enrichment against IDE (in words)” value was “less strongly enriched”.
As to `NC(=O)C1CCCCNC(=O)C(Cc2ccc(C(=O)c3ccccc3)cc2)NC(=O)C(CC2CCCCC2)NC(=O)C(CC2CC2)NC(=O)C=CC(=O)N1` (mixture of isomers) [Compound 5], the “potency of trans-olefin isomer relative to corresponding cis-olefin isomer” value on IDE [1] was > 10 fold. Further, the “enrichment against IDE” value was 4- to 14 fold at IDE [2] (IDE selection 1, one round) and 3- to 6 fold on IDE [2] (replicate IDE selection 2).
Taken in the same sequence, the figures for `NC(=O)CCC1NC(=O)C=CC(=O)NC(C(N)=O)CCCCNC(=O)C(Cc2ccc(C(=O)c3ccccc3)cc2)NC(=O)C(CC2CCCCC2)NC1=O` (mixture of isomers) [Compound 6] were > 10 fold, 4- to 14 fold and 3- to 6 fold.
As a reminder, the IC50 is the concentration that gives 50% inhibition. With `NC(=O)CCC1NC(=O)C=CC(=O)NC(C(N)=O)CCCCNC(=O)CNC(=O)C(CC2CCCCC2)NC1=O` (centres unmarked) [Compound 1], the “activity / potency” value at IDE [1] was “inactive”. Moreover, the IC50 on IDE [1] (setting [7]) is > 100 µM. Moreover, at IDE [2], the “enrichment against IDE (in words)” value was “less strongly enriched”.
At IDE [1] (setting [7]), `N=C(N)NCCCC1NC(=O)C=CC(=O)NC(C(N)=O)CCCCNC(=O)C(Cc2ccc(C(=O)c3ccccc3)cc2)NC(=O)C(CC2CCCCC2)NC1=O` (centres unmarked) [Compound 2] registered an IC50 of 10 µM. Besides, the “enrichment against IDE” value on IDE [2] (IDE selection 1, one round) was 4- to 14 fold; at IDE [2] (replicate IDE selection 2), 3- to 6 fold.
With `NC(=O)C1CCCCNC(=O)C(Cc2ccc(C(=O)c3ccccc3)cc2)NC(=O)C(CC2CCCCC2)NC(=O)CC(O)C(CC2CCCCC2)NC(=O)C=CC(=O)N1` (centres unmarked) [Compound 3a], on IDE [1] (setting [7]), the IC50 is > 20 µM.
Still for that read-out and setting: for `NC(=O)C1CCCCNC(=O)C(Cc2ccc(C(=O)c3ccccc3)cc2)NC(=O)C(CC2CCCCC2)NC(=O)CC(O)C(CC2CCCCC2)NC(=O)C=CC(=O)N1` (centres unmarked) [Compound 3b] the value was 1.5 µM; for `NC(=O)C1CCCCNC(=O)CNC(=O)C(CC2CCCCC2)NC(=O)CC(O)C(CC2CCCCC2)NC(=O)C=CC(=O)N1` (centres unmarked) [Compound 4a], > 100 µM.
`NC(=O)C1CCCCNC(=O)C(Cc2ccc(C(=O)c3ccccc3)cc2)NC(=O)C(CC2CCCCC2)NC(=O)C(CC2CC2)NC(=O)C=CC(=O)N1` (centres unmarked) [Compound 5a]: the IC50 against IDE [1] (setting [7]) was > 20 µM.
Regarding `NC(=O)C1CCCCNC(=O)C(Cc2ccc(C(=O)c3ccccc3)cc2)NC(=O)C(CC2CCCCC2)NC(=O)C(CC2CC2)NC(=O)C=CC(=O)N1` (centres unmarked) [Compound 5b], 1 µM corresponded to half-maximal inhibition on IDE [1] (setting [7]) (IC50).
`NC(=O)CCC1NC(=O)C=CC(=O)NC(C(N)=O)CCCCNC(=O)C(Cc2ccc(C(=O)c3ccccc3)cc2)NC(=O)C(CC2CCCCC2)NC1=O` (centres unmarked) [Compound 6a] registered an IC50 on IDE [1] (setting [7]) of 5.6 µM.
`NC(=O)CCC1NC(=O)C=CC(=O)NC(C(N)=O)CCCCNC(=O)C(Cc2ccc(C(=O)c3ccccc3)cc2)NC(=O)C(CC2CCCCC2)NC1=O` (centres unmarked) [Compound 6b]: in [3], the “inhibition of neprilysin (NEP)” value is on record as “failed to demonstrate any significant inhibition”. In data set [4], the “time of peak blood concentration” value stood at 60 min and the tolerability of injections entry was “well tolerated”. The peak blood concentration in data set [4] (18:1:1 saline:DMSO:Tween-80) stood at 0.2 µM. For the same compound, the “binding site relative to Ii1 (double inhibition plot)” value on IDE [5] was “binding sites of Ii1 and 6b are distinct”. Further, the IC50 against IDE [1] is 0.14 µM. This compound gave an IC50 against IDE [1] (setting [7]) of 0.06 µM. In [6], the detection in brain entry is reported as “none of the three compounds could be detected”, the detection in pancreas result is “could be detected”, the detection in plasma entry is “could be detected” and the “macrocycle concentration in plasma (comparison)” value is “comparable”. At recombinant human THOP1 (at higher concentrations), the “activation of THOP1” value is recorded as “Slight activation”. Besides, at recombinant human THOP1 (even when assayed at 100 μM), the “inhibition of thimet oligopeptidase (THOP1)” value is on record as “failed to demonstrate any significant inhibition”. Further, in the data set on trypsin, the inhibition of trypsin result is reported as “failed to demonstrate any significant inhibition”. For the same compound, at plasma IDE activity, the “inhibition of plasma IDE activity” value is ≥ 90%. Moreover, the “activation of NLN” value on recombinant human NLN (at higher concentrations) is listed as “Slight activation”. Further, the “inhibition of neurolysin (NLN)” value at recombinant human NLN (even when assayed at 100 μM) is on record as “failed to demonstrate any significant inhibition”.
`NCCCC[C@@H]1NC(=O)/C=C/C(=O)NC(C(N)=O)CCCCNC(=O)[C@@H](Cc2ccc(C(=O)c3ccccc3)cc2)NC(=O)[C@H](CC2CCCCC2)NC1=O` (some centres unmarked) [Compound 20]: the “activity / potency” value on IDE [1] is listed as “equipotent”. Besides, the “solubility in water or saline” value in the data set “Solubility” is given as < 0.1 M.
`N=C(N)NCCC[C@H](NC(=O)[C@@H](CC(=O)NO)Cc1ccc2ccccc2c1)C(=O)N[C@@H](Cc1c[nH]c2ccccc12)C(=O)N[C@@H](CCC(=O)O)C(N)=O` [Ii1, reference compound]: the IC50 on recombinant human THOP1 stood at 6 nM; on recombinant human NLN, 150 nM.
